By CLint scaled is commonly meant the capacity of the preparation to metabolise the compound, expressed as a volume cleared per time. In general, EC50 refers to the concentration that produces a half-maximal response.

A short description of data set [1]: Mouse liver microsome assay. In kind it is in vitro ADME. Conditions: 1 μM in mouse liver microsomes; for ER: extraction ratio. How it is done:
Microsomal incubations are run at a final P450 concentration of 0.25 μM. The microsomal mixture is composed of 0.1M potassium phosphate containing 3.3 mM MgCl and 1 μM compound (final concentration). The mixture is prewarmed for 5 min at 37° C. To initiate the reaction a 12 mM stock of NAPDH (1.2 mM, final concentration) is added to the warmed microsomal mixture and aliquots are removed at 0, 5, 10, 20 and 30 min. Samples are quenched with ice cold acetonitrile containing internal standard and either 1.8 mM EDTA or EGTA (final concentration). Samples are vortexed and spun down at 3200 rpm for 5 min. The supernant is transferred to 96-deep well plates and run on LC/MS/MS.
On the technique in general: Liver microsomes are vesicles of endoplasmic reticulum, rich in cytochrome P450 enzymes.

In the next data set the test system is Vero cells. The data set is described as follows: Qualitative (visual) Vero cell toxicity. In kind it is cell-based. The settings on record: visual inspection in primary screen, key to t, T not given. The method, then: Qualitative assessments of cytotoxicity were done visually by inspecting the cells in the primary screening assays. For the quantitative assays, cells were plated in 96-well plates at 1.0×10^4 per well. The next day the compounds were added at 0.78 to 100 μM in a final concentration of 1% (v/v) DMSO, and the cells were incubated for 24 hours under conditions identical to those employed for the viral replication inhibition assays. Mitochondrial toxicity was measured by incubating the cells with 0.25 mg/mL thiazolyl blue tetrazolium bromide (MTT, Sigma Aldrich Chemical Co.), the cultures were incubated for 60 min, metabolites were solubilized in acidic isopropanol, and absorbance was read at 570 nm. CC50 values were calculated by non-linear curve fitting using GraphPad Prism.
Compound toxicity was measured both subjectively and quantitatively. Subjective assessments were done by visually inspecting the infected cells at the end of the 24 h infection window through a phase-contrast microscope.

Data set [2] concerns HSV-2. The data set is described as follows: Anti-HSV-2 replication assay in Vero cells, titers by plaque assay. Conditions: Human alphaherpesvirus 2, Vero, 24 h; for log reduction at 5 µM: read-out: HSV-2 Log suppression 5 μM; for log reduction at 50 µM: read-out: HSV-2 Log suppression 50 μM. The class given is cell-based, herpes simplex virus 2.
Data set [3] deals with HSV-1. The data set is described as follows: Anti-HSV-1 replication assay in Vero cells, titers by plaque assay. In kind it is cell-based, herpes simplex virus 1. Conditions: Human alphaherpesvirus 1, Vero, 24 h; for log reduction at 5 µM: read-out: HSV-1 Log suppression 5 μM; for log reduction at 50 µM: read-out: HSV-1 Log suppression 50 μM. In a few lines:
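Vero monolayers infected with clinical HSV-1 or HSV-2 isolates at MOI 0.1 with compound present (50 and 5 μM final), 1 h at 37° C, then compound in DMEM for another 23 h. Yield titered by plaque assay on Vero cells; EC50 by nonlinear fit of serial dilutions starting at 50 μM, DMSO controls.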

The subject of the next data set is HBV. Put plainly: HBV replication assay in HepDES19 cells. In kind it is cell-based. The settings on record: Hepatitis B virus; HepDES19 cells; read-out: EC50 (HBV assay). Put shortly: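 HepDES19 cells induced by tetracycline withdrawal, then compound applied 48 h later in duplicate (1% DMSO final) and refreshed daily for two more days. After micrococcal nuclease digestion, capsid-associated HBV DNA purified and plus- and minus-strand DNA quantified by TaqMan PCR.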

The subject of the next data set is HSV. The data set is described as follows: Anti-HSV SAR summary, HSV type not separated. The class given is cell-based, herpes simplex virus. The settings on record: grouped by activity at 50, 5 and 0.5 μM. Put shortly:
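Confluent monolayers were infected with HSV-1 or HSV-2 at MOI 0.1 in the presence of compound at 50 and 5 µM for 1 h at 37 °C. Compound was then re-added in DMEM/2% newborn calf serum for 23 h more. Yield was titred by plaque assay on Vero cells, with DMSO controls. EC50 values came from serial dilutions starting at 50 µM, fitted by non-linear regression.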

The test system of data set [4] is patient-derived RNAseH enzymes (genotypes B, C and D). Put plainly: Biochemical RNAseH assay with patient-derived variant enzymes. Conditions: for inhibition of four genotype D RNAseH enzymes: compound at its IC50, FIGS. 7A & 7B; for inhibition of all 12 variant RNAseH enzymes, in words: compound at its IC50, genotypes B, C and D. Set-up: species or system Hepatitis B virus. From the text:
Four variant patient-derived RNAseH enzymes were expressed as recombinant enzymes, purified, and tested in an RNAseH assay with compounds #1 (FIG. 7A) and #46 (FIG. 7B) at their respective IC50s.
HBV has at least 8 genotypes differing in sequence by 8%. Genetic diversity in the RNAseH domain is about 6%, which is easily high enough to modulate viral sensitivity to RNAseH inhibitors. Therefore, the inventors tested the RNAseH inhibitors #1 [2-hydroxyisoquinoline-1,3(2H,4H)-dione], an HID, and #46 (β-thujaplicinol), an α-hydroxytropolone, for the ability to inhibit variant RNAseHs. Twelve purified, patient-derived RNAseH enzymes (4 from each genotypes B, C and D) were tested with the compounds at their respective IC50 values in a biochemical RNAseH assay. […] Therefore, HBV's high genetic variation is unlikely to present a substantial barrier to drug development.

The next data set concerns HBV replication. Put plainly: Chou-Talalay combination of RNAseH inhibitors with Lamivudine against HBV replication. The class given is cell-based, Hepatitis B virus. Conditions: CI <1.0 synergy, ~1.0 additive, >1.0 antagonism. From the text: Additive interactions are shown with the red line, synergistic interactions below the line, and antagonistic interactions are above the line.
Current nucleos(t)ide analog therapy for HBV has converted hepatitis type B from an implacably progressing illness to a controllable disease. However, patients are only very rarely cured, in part due to the incomplete inhibition of HBV replication. The inventors hypothesized that the novel RNaseH inhibitors would work synergistically with the existing nucleos(t)ide analogs because the two classes of drugs target physically distinct active sites on the viral polymerase protein. […] RNAseH inhibitors from two different chemical classes were employed, compound #1 [2-hydroxyisoquinoline-1,3(2H,4H)-dione], an HID, and #46 (β-thujaplicinol), an α-hydroxytropolone, were tested. Chou-Talaly analysis yields a combination index (CI). CI values<1.0 indicate synergy, CIs of approximately 1.0 indicate additive interactions, and CI values>1.0 indicate antagonism. CI values are calculated at various efficacy levels (EC50, EC75, EC90, and EC95), and a weighted CI value favoring higher efficacy levels is also generated. FIGS. 6A & 6B show the results of four experiments employing compound #1 and three with compound #46. […] Therefore, RNAseH inhibitors act strongly synergistically with an approved nucleos(t)ide analog drug against HBV.

Data set [5] has as its system HSV-2. The settings on record: 5 μM or less; cited from earlier work.
Data set [6] concerns HSV-1. Conditions: 5 μM or less; cited from earlier work.

On to `CC(=O)c1cc(O)c(=O)c(O)cc1C` [Compound 110], for which, in data set [1], the Non-P450 turn-over entry was “No” and the ER turned out to be 0.22. The half-life at 1 μM in data set [1] (read-out: t ½) is above 2 h. In [1] (mouse, liver microsomes), this compound registered a CLint scaled at 1 μM of 26 mL/min/kg. In addition, in data set [1] (mouse, liver microsomes, read-out: CL ′hep), the predicted hepatic clearance at 1 μM was 20 mL/min/kg. Further, in the data set with Vero cells, the “Vero cell toxicity Qualitative” value was “t?”. Besides, in the data set on HSV-2 [2], the log reduction at 5 µM was -0.65 and the log reduction at 50 µM was determined as 4.24. In the data set with HSV-1 [3], the log reduction at 5 µM is -0.47 and the log reduction at 50 µM came out at 5.11. For the same compound, in the data set on HBV, the EC50 was found to be 340 nM. The “anti-HSV SAR group, in words” value with HSV is reported as “weakest inhibitors”.

Consider `CCOC(=O)c1c(C)cc(O)c(=O)c(O)c1C` [Compound 117], for which the “Vero cell toxicity Qualitative” value in the data set with Vero cells was “t?”. The log reduction at 5 µM is -0.16 in the data set with HSV-2 [2] and 0.76 in the data set on HSV-1 [3]. For the same compound, the log reduction at 50 µM with HSV-2 [2] stood at 4.97; in the data set on HSV-1 [3] it was 4.66. Moreover, the “anti-HSV SAR group, in words” value with HSV was “weakest inhibitors”.

As to `O=C1Cc2ccccc2C(=O)N1O` [Compound 1, 2-hydroxyisoquinoline-1,3(2H,4H)-dione], in [4], the “inhibition of four genotype D RNAseH enzymes” value is reported as “about 50%” and the “inhibition of all 12 variant RNAseH enzymes, in words” value was “Equivalent results”. The “weighted CI value (combination index) with Lamivudine” value in the data set on HBV replication came to 0.70±0.1.

`CC(C)c1ccc(O)c(=O)c(O)c1` [Compound 46, β-thujaplicinol, reference compound]: in [1], the “CL ′hep” value worked out at 70 mL/min/kg, the “CL′int” value is on record as 318 mL/min/kg, the Non-P450 turn-over entry is given as “No” and the “t ½” value stood at 0.267 h. In addition, the ER in data set [1] came to 0.78. The “suppression of HSV-2 replication in cell culture, in words” value with HSV-2 [5] was “strongly suppress”. In the data set with HSV-1 [6], the “suppression of HSV-1 replication in cell culture, in words” value is reported as “strongly suppress”. Moreover, in data set [4], the “inhibition of four genotype D RNAseH enzymes” value is listed as “about 50%” and the “inhibition of all 12 variant RNAseH enzymes, in words” value was “Equivalent results”. Further, the “weighted CI value (combination index) with Lamivudine” value in the data set with HBV replication is reported as 0.44±0.3.

The record behind these values is patent publication US11420922B2, “Hydroxylated tropolone inhibitors of nucleotidyl transferases in herpesvirus and Hepatitis B and uses therefor” (Saint Louis University, priority 2015, dated 2022).
